`Cc1cnc(N)s1` gave a solubility (mole fraction) (in 1,4-dioxane, 278.15 K) of 0.0399, a solubility (mole fraction) (in 1,4-dioxane, 280.65 K) of 0.0431 and a solubility (mole fraction) (in 1,4-dioxane, 283.15 K) of 0.0474. It also gave a solubility (mole fraction) (in 1,4-dioxane, 285.65 K) of 0.0517, a solubility (mole fraction) (in 1,4-dioxane, 288.15 K) of 0.0563 and a solubility (mole fraction) (in 1,4-dioxane, 290.65 K) of 0.0618. It also gave a solubility (mole fraction) (in 1,4-dioxane, 293.15 K) of 0.0673, a solubility (mole fraction) (in 1,4-dioxane, 295.65 K) of 0.0737 and a solubility (mole fraction) (in 1,4-dioxane, 298.15 K) of 0.0806. For the same molecule, the solubility (mole fraction) (in 1,4-dioxane, 300.65 K) was 0.0881, the solubility (mole fraction) (in 1,4-dioxane, 303.15 K) was 0.0961 and the solubility (mole fraction) (in 1,4-dioxane, 305.65 K) was 0.105. For the same molecule, the solubility (mole fraction) (in 1,4-dioxane, 308.15 K) was 0.115, the solubility (mole fraction) (in 1,4-dioxane, 310.65 K) was 0.126 and the solubility (mole fraction) (in 1,4-dioxane, 313.15 K) was 0.138. The solubility (mole fraction) (in 2-butanone, 278.15 K) was 0.0365, the solubility (mole fraction) (in 2-butanone, 280.65 K) was 0.0405 and the solubility (mole fraction) (in 2-butanone, 283.15 K) was 0.0448. For the same molecule, the solubility (mole fraction) (in 2-butanone, 285.65 K) was 0.049, the solubility (mole fraction) (in 2-butanone, 288.15 K) was 0.0535 and the solubility (mole fraction) (in 2-butanone, 290.65 K) was 0.0585. For the same molecule, the solubility (mole fraction) (in 2-butanone, 293.15 K) was 0.064, the solubility (mole fraction) (in 2-butanone, 295.65 K) was 0.0705 and the solubility (mole fraction) (in 2-butanone, 298.15 K) was 0.0776. For the same molecule, the solubility (mole fraction) (in 2-butanone, 300.65 K) was 0.0849, the solubility (mole fraction) (in 2-butanone, 303.15 K) was 0.093 and the solubility (mole fraction) (in 2-butanone, 305.65 K) was 0.101. The solubility (mole fraction) (in 2-butanone, 308.15 K) was 0.111, the solubility (mole fraction) (in 2-butanone, 310.65 K) was 0.121 and the solubility (mole fraction) (in 2-butanone, 313.15 K) was 0.133. The solubility (mole fraction) (in acetone, 278.15 K) was 0.0493, the solubility (mole fraction) (in acetone, 280.65 K) was 0.0535 and the solubility (mole fraction) (in acetone, 283.15 K) was 0.0587. For the same molecule, the solubility (mole fraction) (in acetone, 285.65 K) was 0.0637, the solubility (mole fraction) (in acetone, 288.15 K) was 0.0692 and the solubility (mole fraction) (in acetone, 290.65 K) was 0.0756. For the same molecule, the solubility (mole fraction) (in acetone, 293.15 K) was 0.0825, the solubility (mole fraction) (in acetone, 295.65 K) was 0.09 and the solubility (mole fraction) (in acetone, 298.15 K) was 0.0979. The solubility (mole fraction) (in acetone, 300.65 K) was 0.107, the solubility (mole fraction) (in acetone, 303.15 K) was 0.116 and the solubility (mole fraction) (in acetone, 305.65 K) was 0.126. The solubility (mole fraction) (in acetone, 308.15 K) was 0.137, the solubility (mole fraction) (in acetone, 310.65 K) was 0.15 and the solubility (mole fraction) (in acetone, 313.15 K) was 0.163. For the same molecule, the solubility (mole fraction) (in acetonitrile, 278.15 K) was 0.0284, the solubility (mole fraction) (in acetonitrile, 280.65 K) was 0.031 and the solubility (mole fraction) (in acetonitrile, 283.15 K) was 0.0341. It also gave a solubility (mole fraction) (in acetonitrile, 285.65 K) of 0.0372, a solubility (mole fraction) (in acetonitrile, 288.15 K) of 0.0406 and a solubility (mole fraction) (in acetonitrile, 290.65 K) of 0.0446. For the same molecule, the solubility (mole fraction) (in acetonitrile, 293.15 K) was 0.0489, the solubility (mole fraction) (in acetonitrile, 295.65 K) was 0.0536 and the solubility (mole fraction) (in acetonitrile, 298.15 K) was 0.0586. It also gave a solubility (mole fraction) (in acetonitrile, 300.65 K) of 0.0638, a solubility (mole fraction) (in acetonitrile, 303.15 K) of 0.0699 and a solubility (mole fraction) (in acetonitrile, 305.65 K) of 0.0763. The solubility (mole fraction) (in acetonitrile, 308.15 K) was 0.0838, the solubility (mole fraction) (in acetonitrile, 310.65 K) was 0.0921 and the solubility (mole fraction) (in acetonitrile, 313.15 K) was 0.1. It also gave a solubility (mole fraction) (in cyclohexane, 283.15 K) of 0.000429, a solubility (mole fraction) (in cyclohexane, 285.65 K) of 0.000491 and a solubility (mole fraction) (in cyclohexane, 288.15 K) of 0.000566. It also gave a solubility (mole fraction) (in cyclohexane, 290.65 K) of 0.000645, a solubility (mole fraction) (in cyclohexane, 293.15 K) of 0.000736 and a solubility (mole fraction) (in cyclohexane, 295.65 K) of 0.000839. The solubility (mole fraction) (in cyclohexane, 298.15 K) was 0.000953, the solubility (mole fraction) (in cyclohexane, 300.65 K) was 0.00108 and the solubility (mole fraction) (in cyclohexane, 303.15 K) was 0.00123. For the same molecule, the solubility (mole fraction) (in cyclohexane, 305.65 K) was 0.00138, the solubility (mole fraction) (in cyclohexane, 308.15 K) was 0.00156 and the solubility (mole fraction) (in cyclohexane, 310.65 K) was 0.00173. The solubility (mole fraction) (in cyclohexane, 313.15 K) was 0.00194, the solubility (mole fraction) (in ethanol, 278.15 K) was 0.0486 and the solubility (mole fraction) (in ethanol, 280.65 K) was 0.0529. For the same molecule, the solubility (mole fraction) (in ethanol, 283.15 K) was 0.0574, the solubility (mole fraction) (in ethanol, 285.65 K) was 0.0629 and the solubility (mole fraction) (in ethanol, 288.15 K) was 0.0677. For the same molecule, the solubility (mole fraction) (in ethanol, 290.65 K) was 0.0736, the solubility (mole fraction) (in ethanol, 293.15 K) was 0.0799 and the solubility (mole fraction) (in ethanol, 295.65 K) was 0.0869. For the same molecule, the solubility (mole fraction) (in ethanol, 298.15 K) was 0.095, the solubility (mole fraction) (in ethanol, 300.65 K) was 0.103 and the solubility (mole fraction) (in ethanol, 303.15 K) was 0.112. It also gave a solubility (mole fraction) (in ethanol, 305.65 K) of 0.122, a solubility (mole fraction) (in ethanol, 308.15 K) of 0.133 and a solubility (mole fraction) (in ethanol, 310.65 K) of 0.144. The solubility (mole fraction) (in ethanol, 313.15 K) was 0.157, the solubility (mole fraction) (in ethyl acetate, 278.15 K) was 0.0523 and the solubility (mole fraction) (in ethyl acetate, 280.65 K) was 0.0567. For the same molecule, the solubility (mole fraction) (in ethyl acetate, 283.15 K) was 0.0614, the solubility (mole fraction) (in ethyl acetate, 285.65 K) was 0.067 and the solubility (mole fraction) (in ethyl acetate, 288.15 K) was 0.0726. The solubility (mole fraction) (in ethyl acetate, 290.65 K) was 0.0791, the solubility (mole fraction) (in ethyl acetate, 293.15 K) was 0.086 and the solubility (mole fraction) (in ethyl acetate, 295.65 K) was 0.0934. The solubility (mole fraction) (in ethyl acetate, 298.15 K) was 0.101, the solubility (mole fraction) (in ethyl acetate, 300.65 K) was 0.109 and the solubility (mole fraction) (in ethyl acetate, 303.15 K) was 0.118. The solubility (mole fraction) (in ethyl acetate, 305.65 K) was 0.129, the solubility (mole fraction) (in ethyl acetate, 308.15 K) was 0.14 and the solubility (mole fraction) (in ethyl acetate, 310.65 K) was 0.152. It also gave a solubility (mole fraction) (in ethyl acetate, 313.15 K) of 0.164, a solubility (mole fraction) (in isopropanol, 278.15 K) of 0.0345 and a solubility (mole fraction) (in isopropanol, 280.65 K) of 0.0381. The solubility (mole fraction) (in isopropanol, 283.15 K) was 0.0415, the solubility (mole fraction) (in isopropanol, 285.65 K) was 0.0452 and the solubility (mole fraction) (in isopropanol, 288.15 K) was 0.0497. For the same molecule, the solubility (mole fraction) (in isopropanol, 290.65 K) was 0.0546, the solubility (mole fraction) (in isopropanol, 293.15 K) was 0.0594 and the solubility (mole fraction) (in isopropanol, 295.65 K) was 0.0647. The solubility (mole fraction) (in isopropanol, 298.15 K) was 0.0709, the solubility (mole fraction) (in isopropanol, 300.65 K) was 0.0775 and the solubility (mole fraction) (in isopropanol, 303.15 K) was 0.085. For the same molecule, the solubility (mole fraction) (in isopropanol, 305.65 K) was 0.0927, the solubility (mole fraction) (in isopropanol, 308.15 K) was 0.102 and the solubility (mole fraction) (in isopropanol, 310.65 K) was 0.112. For the same molecule, the solubility (mole fraction) (in isopropanol, 313.15 K) was 0.121, the solubility (mole fraction) (in methanol, 278.15 K) was 0.0594 and the solubility (mole fraction) (in methanol, 280.65 K) was 0.0639. For the same molecule, the solubility (mole fraction) (in methanol, 283.15 K) was 0.0686, the solubility (mole fraction) (in methanol, 285.65 K) was 0.0742 and the solubility (mole fraction) (in methanol, 288.15 K) was 0.0796. The solubility (mole fraction) (in methanol, 290.65 K) was 0.086, the solubility (mole fraction) (in methanol, 293.15 K) was 0.0927 and the solubility (mole fraction) (in methanol, 295.65 K) was 0.0999. For the same molecule, the solubility (mole fraction) (in methanol, 298.15 K) was 0.107, the solubility (mole fraction) (in methanol, 300.65 K) was 0.116 and the solubility (mole fraction) (in methanol, 303.15 K) was 0.125. It also gave a solubility (mole fraction) (in methanol, 305.65 K) of 0.135, a solubility (mole fraction) (in methanol, 308.15 K) of 0.146 and a solubility (mole fraction) (in methanol, 310.65 K) of 0.157. It also gave a solubility (mole fraction) (in methanol, 313.15 K) of 0.169, a solubility (mole fraction) (in n-propanol, 278.15 K) of 0.037 and a solubility (mole fraction) (in n-propanol, 280.65 K) of 0.0404. The solubility (mole fraction) (in n-propanol, 283.15 K) was 0.0441, the solubility (mole fraction) (in n-propanol, 285.65 K) was 0.0482 and the solubility (mole fraction) (in n-propanol, 288.15 K) was 0.0526. It also gave a solubility (mole fraction) (in n-propanol, 290.65 K) of 0.0575, a solubility (mole fraction) (in n-propanol, 293.15 K) of 0.0628 and a solubility (mole fraction) (in n-propanol, 295.65 K) of 0.0686. It also gave a solubility (mole fraction) (in n-propanol, 298.15 K) of 0.075, a solubility (mole fraction) (in n-propanol, 300.65 K) of 0.082 and a solubility (mole fraction) (in n-propanol, 303.15 K) of 0.0898. For the same molecule, the solubility (mole fraction) (in n-propanol, 305.65 K) was 0.098, the solubility (mole fraction) (in n-propanol, 308.15 K) was 0.107 and the solubility (mole fraction) (in n-propanol, 310.65 K) was 0.117. The solubility (mole fraction) (in n-propanol, 313.15 K) was 0.128, the solubility (mole fraction) (in toluene, 278.15 K) was 0.0109 and the solubility (mole fraction) (in toluene, 280.65 K) was 0.0121. For the same molecule, the solubility (mole fraction) (in toluene, 283.15 K) was 0.0136, the solubility (mole fraction) (in toluene, 285.65 K) was 0.0149 and the solubility (mole fraction) (in toluene, 288.15 K) was 0.0167. It also gave a solubility (mole fraction) (in toluene, 290.65 K) of 0.0185, a solubility (mole fraction) (in toluene, 293.15 K) of 0.0205 and a solubility (mole fraction) (in toluene, 295.65 K) of 0.0225. It also gave a solubility (mole fraction) (in toluene, 298.15 K) of 0.0251, a solubility (mole fraction) (in toluene, 300.65 K) of 0.028 and a solubility (mole fraction) (in toluene, 303.15 K) of 0.0312. The solubility (mole fraction) (in toluene, 305.65 K) was 0.0348, the solubility (mole fraction) (in toluene, 308.15 K) was 0.039 and the solubility (mole fraction) (in toluene, 310.65 K) was 0.0438. It also gave a solubility (mole fraction) (in toluene, 313.15 K) of 0.0493.

— BigSolDB 2.1
